Biological target: fibrils of Aβ40 and Aβ42
Test: Inhibition of N-[^3H-methyl]6-OH-BTA-1 ([^3H]PIB) binding to β-amyloid fibrils, determination of Ki
Design: species or system Human
Conditions: radioligand used for Ki calculation; [L] 4 nM
Experimental: Human Aβ40 and Aβ42 peptides (Bachem) were incubated at 0.5 mg/ml in a solution of 10 mM Na2HPO4, 1 mM EDTA (pH 7.4) at 37° C. for 48 h. The formation of fibrils was confirmed by microscopy and binding of [^3H]6-OH-BTA-1 ([^3H]PIB). Fibrils were either used immediately or aliquoted and subsequently stored at −80° C. until use. Solutions of the test substances (>95% purity according to analytical HPLC) or 6-OH-BTA-1 (>95% purity according to analytical HPLC; ABX Biochemicals, Radeberg, Germany) and N—[^3H-methyl]6-OH-BTA-1 were prepared as 1-10 mM dimethyl sulfoxide (DMSO) stocks before dilution into assay buffer. The maximum final concentration of DMSO in the assays was 1%. All assays were performed in 10 mM Na2HPO4. The incubation was performed at 25° C. for 180 min. The bound and free fractions were separated by vacuum filtration through GF/B glass filters (Whatman, Maidstone, UK) using a Perkin Elmer harvester (PerkinElmer, 96 Micro B Filtermat) followed by 6×0.2 ml washes with ice cold phosphate buffer. Filters containing the bound ligand were counted with a liquid scintillation counter (Wallac Trilux, 1450 Microbeta). […] The inhibition of [^3H]PIB binding was measured for five different concentrations of the test compound in question, performed in duplicates.

CNc1ccc(-c2nc3ccc(O)cc3s2)cc1 [[^3H]PIB, N-[^3H-methyl]6-OH-BTA-1]
Kd: 4.2 nM
